The results in this text go back to US20220242850A1, “PHTHALAZIN-1-ONE DERIVATIVES USEFUL AS GRK2 INHIBITORS” (Janssen Pharmaceutica NV, priority 2019, published 2022).

Broadly, the IC50 is the concentration that gives 50% inhibition.

Where only a bound is given, the exact number is not on record here.

The test addresses T1, GRK2 (Homo sapiens, UniProt P25098).
T1 sequence (P25098 1-689): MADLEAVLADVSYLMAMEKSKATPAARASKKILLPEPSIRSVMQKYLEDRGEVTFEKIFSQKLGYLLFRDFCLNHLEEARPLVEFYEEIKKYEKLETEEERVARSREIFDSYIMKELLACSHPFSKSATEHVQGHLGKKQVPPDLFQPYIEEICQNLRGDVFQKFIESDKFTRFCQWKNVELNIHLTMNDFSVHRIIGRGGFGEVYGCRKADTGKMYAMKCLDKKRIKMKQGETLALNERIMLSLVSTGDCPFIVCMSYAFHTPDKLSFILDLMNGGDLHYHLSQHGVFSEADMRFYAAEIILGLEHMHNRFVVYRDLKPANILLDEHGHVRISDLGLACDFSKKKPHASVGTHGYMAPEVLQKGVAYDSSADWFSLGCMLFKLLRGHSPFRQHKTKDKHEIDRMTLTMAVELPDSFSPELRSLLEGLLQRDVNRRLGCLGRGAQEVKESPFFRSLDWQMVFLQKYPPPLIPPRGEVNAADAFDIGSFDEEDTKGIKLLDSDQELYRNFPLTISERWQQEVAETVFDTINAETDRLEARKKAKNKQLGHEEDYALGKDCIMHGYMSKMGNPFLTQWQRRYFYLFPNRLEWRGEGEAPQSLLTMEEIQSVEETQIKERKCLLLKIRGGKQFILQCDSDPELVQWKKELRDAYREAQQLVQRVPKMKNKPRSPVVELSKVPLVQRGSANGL
In words: hGRK2 LANCE Ultra In Vitro Assay. The note with it: hGRK2 LANCE Ultra Assay IC50, 10 nM GRK2; ATP 30 or 600 μM (not stated which). Type of test: biochemical. Here is the method:
G-protein coupled receptor kinases (GR Kinases) desensitize activated G-protein coupled receptors (GPCRs), by phosphorylation of cytoplasmic loops or carboxyl-terminal tails of GPCRs. GRK2 is one of the 6 different GR kinases and is implicated in heart failure and diabetes.
This assay is sensitive and requires as low as 10 nM enzyme, in a total volume of 10 μL. In addition, the ATP concentration can be varied over a broad range, without interfering with the assay or changing the assay condition. […] Testing inhibitors routinely at both high and low ATP concentrations also enables identification of potential non-ATP competitive inhibitors.
Paroxetine was used as the reference compound in this assay.
Test compounds were dissolved in DMSO at 1 mM and were 3-fold serial diluted. The compound DMSO solutions were then added (100 nL) into a plate well using an acoustic dispenser. To each well was then added 20 nM GRK2 (5 μL) in assay buffer (20 mM HEPES, pH 7.5, 10 mM MgCl2, 0.001% Tween-20®). The plate was sealed and centrifuged at 1000 rpm for 1 min. The plate and wells containing a mixture of GRK2 and test compound were incubated at ambient temperature for 30 min (prior to initializing the enzymatic reaction).
Enzyme reactions were initiated by the addition of 4.9 μL Substrates/Eu-Ab mix to each well. […] Final concentrations of reagents in the assays were as follows: 20 mM HEPES, pH 7.5; 10 mM MgCl2; 0.001% Tween-2® (w/v), 30 or 600 μM ATP; 200 nM ULight-peptide; 4 nM Eu-Ab; 10 nM GRK2; and 1% DMSO.
The plates were sealed and centrifuged at 1000 rpm for 1 min. For reactions at low ATP concentration (30 μM), reaction mixtures were incubated at ambient temperature for 120 min. For reactions at high ATP concentration (600 μM), reaction mixtures were incubated at ambient temperature for 60 min.
The enzyme reactions were quenched by addition of 10 μL of 12 mM EDTA in 1× LANCE detection solution to each well. The plates were then incubated at ambient temperature for 30 min.
The raw HTRF data were converted to % active as follows:
% active=(sample−NC)/(PC−NC)*100
where NC is the mean of negative control (reactions without GRK2), and PC is the mean of positive control (reactions with GRK2 but without inhibitor). IC50 values were determined from a 4-parameter fit, using the following equation:
Y=Bottom+(Top−Bottom)/(1+10^(Log IC50-X)*Hill slope)),
where X=log10 of the compound concentration.
For orientation: In TR-FRET formats the signal depends on donor and acceptor labels being close together.

In turn, `C#CCOc1cccc(Cn2ncc3ccc(-c4cn[nH]c4)c(F)c3c2=O)c1` [Compound 14, 8-Fluoro-2-[(3-prop-2-ynoxyphenyl)methyl]-7-(1H-pyrazol-4-yl)phthalazin-1-one] returned an IC50 of 0.025 µM.

`COc1cccc(C(CO)n2ncc3ccc(-c4cn[nH]c4)cc3c2=O)c1` (centres unmarked) [Compound 15, 2-[2-Hydroxy-1-(3-methoxyphenyl)ethyl]-7-(1H-pyrazol-4-yl)phthalazin-1-one] had an IC50 of 0.033 µM. With `COc1cccc(C(C)n2ncc3ccc(-c4cn[nH]c4)cc3c2=O)c1` (single isomer, unassigned) [Compound 17, 2-[1-(3-Methoxyphenyl)ethyl]-7-(1H-pyrazol-4-yl)phthalazin-1-one], the IC50 was 1.7 µM. The compound `C#CCCNC(=O)c1cccc(Cn2ncc3ccc(-c4cn[nH]c4)cc3c2=O)c1` [Compound 4, N-But-3-ynyl-3-[[1-oxo-7-(1H-pyrazol-4-yl)phthalazin-2-yl]methyl]benzamide] had an IC50 of 0.0055 µM. Under `O=C(NC1CC1)c1cc(F)cc(Cn2ncc3ccc(-c4cn[nH]c4)cc3c2=O)c1` [Compound 5] stands 0.0063 µM; under `COc1cccc(C(C(=O)O)n2ncc3ccc(-c4cn[nH]c4)cc3c2=O)c1` (centres unmarked) [Compound 18, 2-(3-Methoxyphenyl)-2-[1-oxo-7-(1H-pyrazol-4-yl)phthalazin-2-yl]acetic acid], > 20 µM. `O=C(NC1CC1)c1cc(Cn2ncc3ccc(-c4cn[nH]c4)cc3c2=O)ccc1F` [Compound 13, N-Cyclopropyl-2-fluoro-5-[[1-oxo-7-(1H-pyrazol-4-yl)phthalazin-2-yl]methyl]benzamide] returned an IC50 of 0.018 µM. Under `O=C(NC1CC1)c1cccc(Cn2ncc3ccc(-c4cn[nH]c4)cc3c2=O)c1` [Compound 7, N-Cyclopropyl-3-[[1-oxo-7-(1H-pyrazol-4-yl)phthalazin-2-yl]methyl]benzamide] stands 0.01 µM; under `COc1cccc(C(C)n2ncc3ccc(-c4cn[nH]c4)cc3c2=O)c1` (single isomer, unassigned) [Compound 16, 2-[1-(3-Methoxyphenyl)ethyl]-7-(1H-pyrazol4-yl)phthalazin-1-one], 0.089 µM. As to `Cc1cccc(Cl)c1CNC(=O)c1cccc(Cn2ncc3ccc(-c4cn[nH]c4)cc3c2=O)c1` [Compound 2, N-[(2-Chloro-6-methyl-phenyl)methyl]-3-[[1-oxo-7-(1H-pyrazol4-yl)phthaiazin-2-yl]methyl]benzamide], the IC50 was < 0.005 µM. `CC(C)NC(=O)c1cc(Cn2ncc3ccc(-c4cn[nH]c4)cc3c2=O)ccc1F` [Compound 11, 2-Fluoro-N-isopropyl-5-[[1-oxo-7-(1H-pyrazol-4-yl)phthalazin-2-yl]methyl]benzamide] registered an IC50 of 0.012 µM.
